Reference: article PMC6976883, “Detection in two hospitals of transferable ceftazidime-avibactam resistance in Klebsiella pneumoniae due to a novel VEB β-lactamase variant with a Lys234Arg substitution, Greece, 2019” (Eurosurveillance, 2020)

Biological target: T1, VEB-1 (Escherichia coli, UniProt Q7BVU7)
T1 construct: gene blaVEB; natural plasmid-encoded enzyme, no tags; crude cell extracts of E. coli K12 26R793 transconjugants TrcS-2865 (VEB-1) and TrcE-1037 (VEB-25, GenBank MN862699), which also contain OXA-10 and TEM-1
Experiment: spectrophotometric inhibition of ceftazidime hydrolysis
Format: biochemical

Compound `NC(=O)[C@@H]1CC[C@@H]2CN1C(=O)N2OS(=O)(=O)O` [avibactam] has an IC50 of 0.1 nM.
